“Also recorded” adds a separate entry of the source. Like-named read-outs stand apart in the source and are kept apart here.

Data on four molecules can be found in patent publication US10329304B2, “Compounds and methods for inhibition of hedgehog signaling and phosphodiesterase” (Vanderbilt University, priority 2014, dated 2019).

For data set [1], the system named is total cellular cAMP levels. In words: cAMP assay (total cellular cAMP, EIA chemiluminescence). The format is cell-based. The protocol:
Shh-Light2 cells were seeded in a 96-well plate and incubated overnight. Varying concentrations of Rolipram or Eggmanone (0.013 uM-30 uM) or DMSO only were added to the cells in the absence of serum and incubated 30 minutes, at which time forskolin was added for a final concentration of 1 uM. After an additional 15 minutes, cells were washed with PBS and assayed for cAMP levels using EIA based chemiluminescence kit according to the manufacturer's protocol (Cell Signaling Technologies, Danvers, Mass.).
(Cyclic AMP is a second messenger, typically raised through Gs and lowered through Gi signalling.)

In a further data set the test system is Gli2 trafficking. In words: Gli2 ciliary localization and nuclear fraction western blot in NIH3T3 cells. The format is cell-based. The settings on record: SAG 20 nM; for Gli2 localization in the primary cilium: 5 μM; for SAG-induced nuclear accumulation of full-length Gli2: Egm 10 μM, FSK 30 μM. For orientation: A western blot detects proteins with antibodies after separation by electrophoresis.

The test system of a further data set is IFT88 localization. In words: IFT88 immunostaining in NIH3T3 cells. The format is cell-based. The settings on record: EGM 5 μM; ciliobrevin D 100 μM. An excerpt: To investigate whether the disruption of the cilium-to-nucleus trafficking of Gli2 by eggmanone was due to a general defect in the retrograde transport within the primary cilium, we compared the effect of the cytoplasmic dynein motor inhibitor ciliobrevin D with the effect of eggmanone on the intraflagellar transport protein 88 (IFT88) trafficking^19. […] Thus, the effects of eggmanone on Gli2 trafficking is specific, rather than an indirect consequence of a global defect in ciliary transport machinery.

In data set [2] the test system is PDE4D3-induced Hh reporter activity. Nature of the data set: Hh reporter activity in Shh-Light2 cells transfected with PDE4D3. The format is cell-based. The settings on record: 5 μM. How it is done:
For Hh signaling assays, Shh-Light2 cells stably transfected with Gli-Luciferase reporter construct were used along with Shh-conditioned media, as previously described^7. Alternatively, 3 μM purmorphamine or 20 nM Smoothened agonist (SAG) (Santa Cruz Biotechnology, Santa Cruz, Calif.) was used to induce Hh signaling. Reporter cells were seeded in 96-well plates and incubated overnight with the various concentrations of eggmanone and Shh-conditioned media. To assess the effects of overexpression of Gli-2, PDE4D3 and DN-PDE4D3 on Hh signaling, mammalian expression vectors containing these constructs were transfected into Shh-Light2 cells in 96-well plates using Fugene6 (Roche), according to manufacturer's instructions. The transfected or Shh-stimulated cells were incubated overnight with the various concentrations of compound. The cells were then lysed, and cell extracts were subjected to Steady-Glo luciferase assay (Promega) according to manufacturer's instructions. The results were normalized to cell titer, as determined using Cell Titer-Glo luminescence assay (Promega).

In a further data set the test system is Gli1 transcription. Nature of the data set: Sufu−/− mouse embryonic fibroblasts qRT-PCR. The format is cell-based. The settings on record: Gli1 and Ptch1. Background: Quantitative PCR measures a nucleic acid by following its amplification.
Data set [3] is described as follows: Lipophilic efficiency (LipE = pEC50 − cLogP) and cLogP. Summed up:
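pEC50 came from TM3-Gli-Luc Gli-responsive luciferase reporter cells stimulated with 20 nM SAG, with non-specific cytotoxicity monitored in parallel. LipE was calculated by subtracting cLogP from pEC50.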

[4] abbreviates: Calculated as pEC50 - cLogP, Molinspiration Cheminformatics.

For the molecule `C=C(C)Cn1c(SCC(=O)c2cccs2)nc2sc3c(c2c1=O)CCCC3` [EGM, Eggmanone], the entries for the “Total cellular cAMP levels” value in data set [1] and in data set [1] (listed as Egm) were “without raising total cellular cAMP content” and “only caused small increase at concentrations above those required to inhibit Hh signaling”, respectively. Besides, the results for the “Gli2 localization in the primary cilium” value in the data set with Gli2 trafficking and in the data set on Gli2 trafficking (listed as Egm) were “significantly increased Gli2 localization in the cilium” and “significantly increased Gli2 localization in the cilia”, respectively. Further, the “SAG-induced nuclear accumulation of full-length Gli2” value in the data set with Gli2 trafficking and in the data set with Gli2 trafficking (listed as Egm) was “abrogated” throughout. Further, the “IFT88 localization in the cilium” value in the data set on IFT88 localization is “did not affect IFT88 localization”. The “Hh reporter activity induced by wild-type PDE4D3 overexpression” value in data set [2] is reported as “abolished”.
As for `C=C(C)Cn1c(SCC(=O)c2cccs2)nc2sc3c(c2c1=O)CCCC3` [Eggmanone, 3-(2-methylallyl)-2-((2-oxo-2-(thiophen-2-yl)ethyl)thio)-5,6,7,8-tetrahydrobenzo[4,5]thieno[2,3-d]pyrimidine-4(3H)-one], the “Total cellular cAMP levels” value is “had no effect on total cellular cAMP content; also recorded: did not significantly increase total cAMP levels” in data set [1] and “did not increase total cAMP levels” in data set [1] (listed as eggmanone). Moreover, the “Gli2 localization in the primary cilium” value in the data set on Gli2 trafficking was “significantly more Gli2 accumulated in Eggmanone-treated cilia than in controls”; with Gli2 trafficking (listed as eggmanone), “more Gli2 accumulated in eggmanone-treated cilium than in controls”. Moreover, the “SAG-induced nuclear accumulation of full-length Gli2” value with Gli2 trafficking and in the data set with Gli2 trafficking (listed as eggmanone) was “blunted the nuclear accumulation of the full-length Gli2” each time. In addition, in the data set with IFT88 localization, the “IFT88 localization in the cilium” value is listed as “had no effect on IFT88 localization or cilium morphology”. Also, the entries for the “Hh reporter activity induced by wild-type PDE4D3 overexpression” value in data set [2] and in data set [2] (listed as eggmanone) were “abrogated; also recorded: abolished” and “abrogated”, respectively.
With `CCCn1c(SCC(=O)c2cccs2)nc2sc3c(c2c1=O)CCCC3` [Formula 9e], the “Transcriptional inhibition in the Sufu−/− cell line, in words” value in the data set on Gli1 transcription is on record as “general ability to inhibit transcriptional activity”. Also, the LipE in data set [3] (setting [4]) is 1.06; in data set [3] (pEC50 - cLogP, Table 14), 1.06.
`C=C(C)Cn1c(SCC(=O)c2ccccc2)nc2sc3c(c2c1=O)CCCC3` [Formula 9g]: in the data set with Gli1 transcription, the “Transcriptional inhibition in the Sufu−/− cell line, in words” value is listed as “general ability to inhibit transcriptional activity”. Besides, the LipE in data set [3] (setting [4]) is listed as −0.01; in data set [3] (pEC50 - cLogP, Table 14), −0.01.
